Data: paper PMC10349806 (Nature Communications, 2023)
Numbering of substitutions follows the chain as printed. Several values for one entry are separate records, joined by “and”; a condition that tells them apart may be missing. Identical values can stand only once.

Legend:
[1] = target: T1, PfCRT variant H46A (Plasmodium falciparum, UniProt Q9N623, A220S/H46A/I356T/K76T/M74I/N326S/N75E/Q271E/R371I); experiment: CQ uptake assay, oocytes expressing H46A; type: cell-based
T1 sequence (Q9N623 1-424 H46A/M74I/N75E/K76T/A220S/Q271E/N326S/I356T/R371I): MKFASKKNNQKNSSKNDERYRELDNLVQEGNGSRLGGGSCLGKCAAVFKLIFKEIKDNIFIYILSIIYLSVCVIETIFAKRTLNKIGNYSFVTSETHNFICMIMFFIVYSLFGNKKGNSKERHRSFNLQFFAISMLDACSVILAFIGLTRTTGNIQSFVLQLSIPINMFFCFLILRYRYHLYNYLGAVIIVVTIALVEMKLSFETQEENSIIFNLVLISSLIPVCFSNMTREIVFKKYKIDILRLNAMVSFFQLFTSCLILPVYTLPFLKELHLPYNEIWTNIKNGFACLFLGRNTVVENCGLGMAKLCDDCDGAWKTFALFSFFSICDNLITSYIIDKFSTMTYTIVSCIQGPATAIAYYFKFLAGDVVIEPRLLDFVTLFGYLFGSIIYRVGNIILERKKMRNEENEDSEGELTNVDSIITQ
Description: (§1) Site-directed mutagenesis of PfCRT^Dd2 was performed as described using the megaprimer method with overlap extension[21],[54]. The primer pairs used are listed in Supplementary Table 6. Please note that a codon-optimized and oocyte-adapted version of PfCRT^Dd2 was used[22] (Supplementary Fig. 16). The resulting DNA fragment was cloned into the SP64T expression vector and verified by sequencing.
(§2) Oocytes were obtained as described previously. Briefly, adult (>2 years old) female X. laevis frogs (NASCO) were anesthetized in a cooled solution of ethyl 3-amino benzoate methanesulfonate (0.1%, w/v), followed by a surgical removal of parts of the ovary. The ovary lobes were carefully dissected and small pieces of oocytes were incubated in Ca^2+-free ND96 buffer (96 mM NaCl, 2 mM KCl, 1 mM MgCl2 buffered with 5 mM HEPES/NaOH, pH 7.5) supplemented with collagenase D (0.1%, w/v; Roche), BSA (0.5%, w/v), and 9 mm Na2HPO4 at 18 °C for 14-16 h while gentle shaking. After incubation, the oocytes were carefully washed several times with ND96 buffer (96 mM NaCl, 2 mM KCl, 1.8 mM CaCl2, 1 mM MgCl2 buffered with 5 mM HEPES/NaOH, pH 7.5) supplemented with 100 mg l^−1 gentamycin). Defolliculated and healthy-looking stage V-VI oocytes were manually selected for RNA microinjection. The RNA was generated as following: The codon-optimized sequences of PfCRT variants were cloned into the pSP64T expression vector. After vector linearization using the restriction endonucleases BamHI or SalI (New England Biolabs), transcription was performed using the in vitro SP6 mMessage mMachine Kit (Ambion)[34]. The obtained RNA was kept at −80 °C and diluted with nuclease-free water to a concentration of 0.6 μg μl^−1. Precision-bore glass capillary tubes (3.5-inch glass capillaries; Drummond Scientific Co.) were pulled on a vertical puller (P-87 Flaming/Brown micropipette puller, Sutter Instrument Co.), graduated, and placed on a microinjector (Nanoject II Auto-Nanoliter Injector, Drummond Scientific Co.). 50 nl of nuclease-free water alone (control oocytes) or 50 nl of 0.6 μg μl^−1 RNA were injected under stereomicroscopic control. Injected oocytes were incubated for 46–72 h at 18 °C with twice-daily buffer changes before usage in experiments.
(§3) Drug uptake assays were performed as described previously[21],[22],[24],[34]. […] The direction of radio-labeled drug transport is here from the mostly acidic extracellular solution (pH 4.5 or 6.0, as indicated) into the oocyte cytosol (pH ∼ 7.2), which corresponds to the efflux of drug from the acidic digestive vacuole (pH 5.2) into the parasite cytoplasm (pH 7.2). The topology of PfCRT in the oolemma is such that both the N- and C-terminus face the extracellular milieu[3],[22]. In the parasite, the N- and C-terminus face the lumen of the digestive vacuole. CQ uptake kinetics were performed by incubating oocytes in ND96 buffer adjusted to a pH of 4.5, 5.0, 5.5, or 6.0 and supplemented with 50 nM [^3H]CQ and one of 7 different CQ concentrations (10 µM, 50 µM, 100 µM, 200 µM, 300 µM, 400 µM, 500 µM CQ). The reaction was stopped at the 60 min time point, which is in the linear uptake range[22],[34] (Supplementary Fig. 17). For determination of the amount of drug uptake for each oocyte, the reaction medium was removed and the oocytes were washed three times with 2 ml of ice-cold ND96 buffer. Each oocyte was individually transferred to a scintillation vial containing 5% sodium dodecyl sulfate (200 μl) for lysis. The radioactivity of each sample was measured using a liquid scintillation analyzer Tri-Carb 4910 TR (PerkinElmer). Oocytes that were injected with water instead of RNA were analyzed in parallel, representing the uptake of a drug by diffusion and/or endogenous permeation pathways. The resulting value represents the “background“ level of drug accumulation in oocytes (in-depth discussion in[22]). […]

[2] = tested on: PfCRT variant E207N; experiment: CQ uptake assay, oocytes expressing E207N; type: cell-based, Plasmodium falciparum
Description: as §1, §2, §3

[3] = target: T2, PfCRT variant D311A (Plasmodium falciparum, UniProt Q9N623, A220S/D311A/I356T/K76T/M74I/N326S/N75E/Q271E/R371I); experiment: CQ uptake assay, oocytes expressing D311A; type: cell-based
T2 sequence (Q9N623 1-424 M74I/N75E/K76T/A220S/Q271E/D311A/N326S/I356T/R371I): T1 sequence (Q9N623 1-424 H46A/M74I/N75E/K76T/A220S/Q271E/N326S/I356T/R371I) with A46H, D311A
Description: as §1, §2, §3

[4] = H46A, 50 µM CQ, 1 h, mean ± SEM
[5] = pH 4.5, single replicates, Fig 1d left
[6] = pH 6.0, single replicates, Fig 1d left
[7] = E207N, 50 µM CQ, 1 h, mean ± SEM
[8] = D311A, 50 µM CQ, 1 h, mean ± SEM

CCN(CC)CCCC(C)Nc1ccnc2cc(Cl)ccc12 (stereo not drawn) [CQ, chloroquine]
Activity at pH 4.5 [1, 4]: 2.03 ± 0.27 pmol h-1 oocyte-1 | Activity at pH 6.0 [1, 4]: 5.06 ± 0.47 pmol h-1 oocyte-1 | R-value ([1]; H46A, CQ transport at pH 4.5 / pH 6.0): 0.40 ± 0.03 | H46A transport activity pH 4.5 [1, 5]: 2.52 pmol oocyte-1 h-1 and 1.13 pmol oocyte-1 h-1 and 2.13 pmol oocyte-1 h-1 and 2.35 pmol oocyte-1 h-1 | H46A R-value ([1]; pH 4.5 vs pH 6.0, Fig 1d left): 0.45 and 0.32 and 0.36 | H46A transport activity pH 6.0 [1, 6]: 5.57 pmol oocyte-1 h-1 and 3.48 pmol oocyte-1 h-1 and 5.92 pmol oocyte-1 h-1 and 5.27 pmol oocyte-1 h-1 | Activity at pH 4.5 [2, 7]: 2.54 ± 0.34 pmol h-1 oocyte-1 | Activity at pH 6.0 [2, 7]: 2.81 ± 0.43 pmol h-1 oocyte-1 | R-value ([2]; E207N, CQ transport at pH 4.5 / pH 6.0): 0.93 ± 0.07 | E207N transport activity pH 4.5 ([2]; pH 4.5, individual replicates, Fig 6b): 3.35 pmol oocyte-1 h-1 and 2.62 pmol oocyte-1 h-1 and 1.45 pmol oocyte-1 h-1 and 2.72 pmol oocyte-1 h-1 | E207N transport activity pH 6.0 ([2]; pH 6.0, individual replicates, Fig 6b): 3.09 pmol oocyte-1 h-1 and 3.00 pmol oocyte-1 h-1 and 1.41 pmol oocyte-1 h-1 and 3.72 pmol oocyte-1 h-1 | E207NR-value ([2]; ratio of activity pH 4.5 / pH 6.0): 1.08 and 0.87 and 1.03 and 0.73 | Activity at pH 4.5 [3, 8]: 1.07 ± 0.25 pmol h-1 oocyte-1 | Activity at pH 6.0 [3, 8]: 3.22 ± 0.61 pmol h-1 oocyte-1 | R-value ([3]; D311A, CQ transport at pH 4.5 / pH 6.0): 0.33 ± 0.05 | D311A transport activity pH 4.5 [3, 5]: 0.58 pmol oocyte-1 h-1 and 1.64 pmol oocyte-1 h-1 and 0.99 pmol oocyte-1 h-1 | D311A R-value ([3]; pH 4.5 vs pH 6.0, Fig 1d left): 0.22 and 0.35 and 0.42 | D311A transport activity pH 6.0 [3, 6]: 2.63 pmol oocyte-1 h-1 and 4.69 pmol oocyte-1 h-1 and 2.33 pmol oocyte-1 h-1
